These results are taken from patent publication US20120207753A1, “METHODS OF USING CD44 FUSION PROTEINS TO TREAT CANCER” (CENTRE HOSPITALIER UNIVERSITAIRE VAUDOIS, priority 2009, published 2012).

The structures appear in SMILES notation.

Experiment [1] concerns U87MG cells. Put plainly: Intracranial tumor growth and survival, transduced U87MG cells in Rag-1 mice. Format: in vivo, human. As to conditions: single dose BCNU 10 mg/kg iv or TMZ 5 mg/kg ip. On the procedure:
(§1) FIG. 12. Antagonists of CD44 are effective therapeutic agents against human GBM in mouse models. A, U87MG and U251 cells were transduced with the retroviruses carrying empty vector and the expression constructs of hsCD44s-Fc, hsCD44v8-v10-Fc, and hsCD44v3-v10 and their serum free cell culture supernatants were collected and analyzed on Western blots using anti-CD44 antibody (Santa Cruz) or anti-human IgG antibody. The molecular weight bars correspond to 199 kDa and 116 kDa. B, 2×10^6 of the transduced U87MG and U251 cells were injected subcutaneously per mouse. Growth rates of the subcutaneous tumors were determined and expressed as the mean of tumor volume (mm^3)+/−SD. Six mice were used for each construct. C, Survival rates of mice following the intracranial injections of transduced U87MG (C-a) and U251 (C-b-c) cells infected with the retroviruses carrying the empty expression vectors, hsCD44s-Fc, hsCD44v8-v10-Fc, hsCD44v3-v10, hsCD44sR41A-Fc, or hsCD44v3-v10R41A-Fc constructs as indicated in the panels. […]
(§2) Mice were used in accordance with the approved IACUC Protocol. […] Following injection, mice were closely monitored and the duration of their survival was recorded. […] Number of surviving mice was recorded. The survival rates were calculated as follows: survival rate (%)=(number of mice still alive/total number of experimental mice)×100%. […]

Experiment [2] deals with U251 cells. Put plainly: Intracranial tumor growth and survival, transduced U251 cells in Rag-1 mice. Format: in vivo, human. As to conditions: single dose BCNU 10 mg/kg iv or TMZ 5 mg/kg ip. As to the method: as §1, §2

Regarding `O=NN(CCCl)C(=O)NCCCl` [BCNU, carmustine], the “inhibition of intracranial glioma formation (median survival), drug combined with CD44 knockdown” value in experiment [1] (intracranial U87MG-Luc depleted of CD44) and in experiment [2] (intracranial U251-Luc depleted of CD44) was “synergistic inhibition of intracranial glioma formation” in each case. The “inhibitory effect on glioma growth as single agent” value in experiment [1] (intracranial U87MG-Luc) and in experiment [2] (intracranial U251-Luc) was “weak” each time.
